The subject of test [1] is Bacillus anthracis. Description: Antibacterial activity against Bacillus anthracis infected in Fischer 344 rat assessed as enhancement of survival rate against lethal toxin-mediated toxicity at 0.25 mg, iv coadministered along with 10 ug bacterial lethal factor measured up to 8 hrs. The test is classed as functional, organism-based.
Test [2] relates to Bacillus anthracis. The test is described as follows: Antibacterial activity against Bacillus anthracis infected in Fischer 344 rat assessed as enhancement of survival rate against lethal toxin-mediated toxicity at 0.085 mg, iv coadministered along with 10 ug bacterial lethal factor measured up to 8 hrs. The test is classed as functional, organism-based.
The test system of test [3] is Bacillus anthracis. The test is described as follows: Antibacterial activity against Bacillus anthracis infected in Fischer 344 rat assessed as enhancement of survival rate against lethal toxin-mediated toxicity at 1.25 mg, iv administered 30 mins prior to 10 ug bacterial lethal factor infusion measured up to 8 hrs. The format is functional, organism-based.
The subject of test [4] is Bacillus anthracis. Description: Antibacterial activity against Bacillus anthracis Sterne infected in DBA/2 mouse assessed survival rate at 2.5 mg/kg, iv QD for 10 days measured post last dose in presence of 50 mg/kg/day, ip ciprofloxacin. The format is functional.
The subject of test [5] is Bacillus anthracis. The test is described as follows: Antibacterial activity against Bacillus anthracis infected in Fischer 344 rat assessed as time to death at 0.017 mg, iv coadministered along with 10 ug bacterial lethal factor up to 8 hrs. The format is functional.
The subject of test [6] is Bacillus anthracis. Description: Antibacterial activity against Bacillus anthracis Sterne infected in DBA/2 mouse at 2.5 mg/kg, iv QD for 10 days measured post last dose. The test is classed as functional, organism-based. Details: dose 2.5 mg/kg.
Test [7] addresses T1, Lethal factor (Bacillus anthracis, UniProt P15917).
T1 sequence (P15917 whole entry): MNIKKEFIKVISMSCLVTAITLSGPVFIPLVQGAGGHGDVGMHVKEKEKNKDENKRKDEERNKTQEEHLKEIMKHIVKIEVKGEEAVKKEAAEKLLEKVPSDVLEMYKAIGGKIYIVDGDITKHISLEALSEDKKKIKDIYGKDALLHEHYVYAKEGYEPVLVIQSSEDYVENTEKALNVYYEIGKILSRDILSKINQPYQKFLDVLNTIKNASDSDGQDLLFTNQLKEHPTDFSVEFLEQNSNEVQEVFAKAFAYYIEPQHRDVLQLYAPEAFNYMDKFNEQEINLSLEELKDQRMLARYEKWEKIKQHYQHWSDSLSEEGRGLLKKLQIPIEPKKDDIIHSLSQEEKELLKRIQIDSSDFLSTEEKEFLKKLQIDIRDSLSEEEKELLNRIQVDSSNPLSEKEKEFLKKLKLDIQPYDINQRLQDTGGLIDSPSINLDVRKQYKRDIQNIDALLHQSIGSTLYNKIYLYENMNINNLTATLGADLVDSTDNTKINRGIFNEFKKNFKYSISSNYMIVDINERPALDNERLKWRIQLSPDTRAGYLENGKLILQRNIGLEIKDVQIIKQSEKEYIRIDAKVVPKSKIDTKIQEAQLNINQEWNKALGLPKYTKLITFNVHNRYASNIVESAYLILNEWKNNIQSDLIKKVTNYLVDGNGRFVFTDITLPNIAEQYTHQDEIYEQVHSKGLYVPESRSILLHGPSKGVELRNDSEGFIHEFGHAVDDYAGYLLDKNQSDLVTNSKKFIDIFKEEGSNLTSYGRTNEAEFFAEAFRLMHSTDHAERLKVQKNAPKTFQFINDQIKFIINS
The test is described as follows: Inhibition of Bacillus anthracis lethal factor.

Test [8] deals with Bacillus anthracis. The test is described as follows: Antibacterial activity against Bacillus anthracis infected in Fischer 344 rat assessed as enhancement of survival rate against lethal toxin-mediated toxicity at 1.25 mg, iv coadministered along with 10 ug bacterial lethal factor measured up to 8 hrs. The test is classed as functional, organism-based.
Test [9] relates to Bacillus anthracis. The test is described as follows: Antibacterial activity against Bacillus anthracis infected in Fischer 344 rat assessed as time to death at 0.25 mg, iv coadministered along with 10 ug bacterial lethal factor up to 8 hrs. The test is classed as functional.

pIC50: −log10 of the molar value. Calls of active or inactive are those of the source. The calls are words filed in the database; no cut-off is given here.

In general, pIC50 refers to the negative decadic logarithm of the IC50, by convention in mol/L. Read a low pIC50 as a large IC50. Turning to `NCc1cccc(CSC[C@H]2O[C@H]3O[C@H]4[C@H](O)[C@@H](O)[C@H](O[C@H]5[C@H](O)[C@@H](O)[C@H](O[C@H]6[C@H](O)[C@@H](O)[C@H](O[C@H]7[C@H](O)[C@@H](O)[C@H](O[C@H]8[C@H](O)[C@@H](O)[C@H](O[C@H]9[C@H](O)[C@@H](O)[C@H](O[C@H]2[C@H](O)[C@H]3O)O[C@@H]9CSCc2cccc(CN)c2)O[C@@H]8CSCc2cccc(CN)c2)O[C@@H]7CSCc2cccc(CN)c2)O[C@@H]6CSCc2cccc(CN)c2)O[C@@H]5CSCc2cccc(CN)c2)O[C@@H]4CSCc2cccc(CN)c2)c1`, the result in test [1], in [2], in test [3], in test [6] and in [8] was Active. Further, the Activity entry in test [4] is recorded as “<=90%”. The Time in test [5] is 285 min. The molecule also showed a negative-log IC50 (pIC50) in [7] of 6.30.

In the case of `NCCCSC[C@H]1O[C@H]2O[C@H]3[C@H](O)[C@@H](O)[C@H](O[C@H]4[C@H](O)[C@@H](O)[C@H](O[C@H]5[C@H](O)[C@@H](O)[C@H](O[C@H]6[C@H](O)[C@@H](O)[C@H](O[C@H]7[C@H](O)[C@@H](O)[C@H](O[C@H]8[C@H](O)[C@@H](O)[C@H](O[C@H]1[C@H](O)[C@H]2O)O[C@@H]8CSCCCN)O[C@@H]7CSCCCN)O[C@@H]6CSCCCN)O[C@@H]5CSCCCN)O[C@@H]4CSCCCN)O[C@@H]3CSCCCN`, the Time in [9] stood at 130 min. Besides, the result in [1] was inactive. In addition, the result in test [3] and in test [8] was Active. Also, the pIC50 in test [7] is 5.54.

As for `NCc1ccc(CSC[C@H]2O[C@H]3O[C@H]4[C@H](O)[C@@H](O)[C@H](O[C@H]5[C@H](O)[C@@H](O)[C@H](O[C@H]6[C@H](O)[C@@H](O)[C@H](O[C@H]7[C@H](O)[C@@H](O)[C@H](O[C@H]8[C@H](O)[C@@H](O)[C@H](O[C@H]9[C@H](O)[C@@H](O)[C@H](O[C@H]2[C@H](O)[C@H]3O)O[C@@H]9CSCc2ccc(CN)cc2)O[C@@H]8CSCc2ccc(CN)cc2)O[C@@H]7CSCc2ccc(CN)cc2)O[C@@H]6CSCc2ccc(CN)cc2)O[C@@H]5CSCc2ccc(CN)cc2)O[C@@H]4CSCc2ccc(CN)cc2)cc1`, the outcome in [1], in [2] and in test [3] was Active. For the same molecule, the Time in test [5] came to 382 min. In test [7], this molecule gave a negative logarithm of the IC50 (pIC50) of 6.15.

With `NCCCCCCCCSC[C@H]1O[C@H]2O[C@H]3[C@H](O)[C@@H](O)[C@H](O[C@H]4[C@H](O)[C@@H](O)[C@H](O[C@H]5[C@H](O)[C@@H](O)[C@H](O[C@H]6[C@H](O)[C@@H](O)[C@H](O[C@H]7[C@H](O)[C@@H](O)[C@H](O[C@H]8[C@H](O)[C@@H](O)[C@H](O[C@H]1[C@H](O)[C@H]2O)O[C@@H]8CSCCCCCCCCN)O[C@@H]7CSCCCCCCCCN)O[C@@H]6CSCCCCCCCCN)O[C@@H]5CSCCCCCCCCN)O[C@@H]4CSCCCCCCCCN)O[C@@H]3CSCCCCCCCCN`, the outcome in [1], in [2] and in test [3] was Active. In addition, the Time in [5] is given as 623 min. In addition, in test [7], the pIC50 was 6.52.

Source of the values: ChEMBL document CHEMBL1255363, “In vivo efficacy of beta-cyclodextrin derivatives against anthrax lethal toxin” (Antimicrob Agents Chemother, 2008).
